Where two headings read alike, the source gives them in different places.
Key:
Waga = test: Cell survival by CellTiterGlo, VP-MCC line Waga; format: cell-based; settings: for IC50: CellTiterGlo, normalized to DMSO; for AUC (arbitrary units) WaGa: area under the dose-response curve
HaCaT = test: Cell survival by CellTiterGlo, control cells; format: cell-based, human; settings: for IC50: Homo sapiens, HaCaT, control skin cell line, CellTiterGlo, normalized to DMSO, read-out: IC50 (nM) HaCaT; for AUC (arbitrary units) HaCaT: area under the dose-response curve, control cells
MKL-1 = test: Cell survival by CellTiterGlo, VP-MCC line MKL-1; format: cell-based; settings: for IC50: MKL-1, CellTiterGlo; for AUC (arbitrary units) MKL-1: area under the dose-response curve
MCC13 = test: Cell survival by CellTiterGlo, VN-MCC line MCC13; format: cell-based; settings: for IC50: CellTiterGlo, normalized to DMSO; for AUC (arbitrary units) MCC13: area under the dose-response curve
UISO = test: Cell survival by CellTiterGlo, VN-MCC line UISO; format: cell-based; settings: for IC50: CellTiterGlo, normalized to DMSO; for AUC (arbitrary units) UISO: area under the dose-response curve
[1] = test system: control (HaCaT) and Merkel cell carcinoma cell lines; test: Cell survival by CellTiterGlo, all seven cell lines; format: cell-based; settings: for IC50: Homo sapiens, HaCaT; for activity on cell viability, in words: MCC and control cell lines
Method: (§1) Three methods were employed for assessment of MCC and control cell survival/viability after discorhabdin treatment, two metabolic assays and a cell permeability assay. For all three methods, cells were plated in 384-well plates at 2500 cells/well and treated with various concentrations of discorhabdins for various time periods. CellTiterGlo^TM (Promega, Madison, WI, USA) measures cellular ATP content and was used to estimate potency of discorhabdins in cell viability assays as previously described. Continuous monitoring of metabolic activity was accomplished using a cellular reducing potential luminescence assay, the RealTime-Glo^TM MT Cell Viability Assay (Promega, Madison, WI, USA) according to manufacturer’s instructions. Loss of cell plasma membrane integrity was assessed using a cell-impermeant molecule that becomes fluorescent upon binding DNA [82] in parallel with apoptosis detection per manufacturer’s instructions (RealTimeGlo^TM Annexin V Apoptosis and Necrosis Assay-Promega). Two additional assays of apoptotic cell death were also used. Caspase activation in response to treatment of MCC cells by discorhabdins or bortezomib (as a positive control) was measured using the CaspaseGlo® 3/7 Assay (Promega, Madison, WI, USA) according to the manufacturer’s instructions at multiple time points. Inhibition of apoptotic cell death was investigated using pre-treatment of cells with for 1 h with the pan-caspase inhibitor Z-VAD-FMK (Enzo Life Sciences, Farmingdale, NY, USA) followed by treatment with discorhabdins or bortezomib and estimation of cell viability as outlined above.
(§2) In order to compare responses among all of the discorhabdins and cell lines (98 combinations), dose–response curves were generated using identical discorhabdin dilution series. GraphPad Prism 8 (San Diego, CA, USA) software was utilized to graph dose–response data and to calculate IC50 values and area under the dose–response curves (AUC) along with 95% confidence interval estimates using four-parameter logistic nonlinear regression analysis. For further analysis and comparisons, AUC for each cell line/discorhabdin pair was visualized in a heatmap generated in R version 1.3.1073 (R Core Team (2013). R: A language and environment for statistical computing. R Foundation for Statistical Computing, Vienna, Austria, http://www.R-project.org/ (accessed on 12 January 2023).
Figure S39: Activity of discorhabdins against M CC cell lines.
The indicated discorh abd ins were ass essed for th eir ability to affect surviv al of control (H aCaT) and Merkel cell carcino ma cell lines (VN-MCC: MCC13, MCC26, UISO and VP -MCC: MKL-1, MKL-2, Wag a). Cells were plat ed at 2500 cells/well and compounds the next day. Cell survival was estimated by CellTiterGlo (normalized to untreated (DMSO) cells on the same plate). Structures w ere o btained from the supplier and/or the PubChem database or as described in the text. Number in bold in ( ) refers to structures in Figure 1 in the text. Curves were plotted and IC50 values and 95% confidence interval calculated by GraphPad software. […]

MCC26 = test: Cell survival by CellTiterGlo, VN-MCC line MCC26; format: cell-based; settings: for IC50: CellTiterGlo, normalized to DMSO; for AUC (arbitrary units) MCC26: area under the dose-response curve
MKL-2 = test: Cell survival by CellTiterGlo, VP-MCC line MKL-2; format: cell-based; settings: for AUC (arbitrary units) MKL-2: area under the dose-response curve; for IC50: CellTiterGlo, normalized to DMSO
MCC cell lines = test: Cell survival by CellTiterGlo, MCC cell lines together; format: cell-based; settings: average over MCC cell lines
Method: as §1, §2

[2] = VP-MCC, normalized to DMSO, read-out: IC50 (nM) MKL-1
[3] = essentially inactive compounds, read-out: average IC50 against all the cell lines
[4] = CellTiterGlo, 10 µM highest concentration tested, read-out: IC50, all cell lines

Cn1cnc(SC2=CC(=O)C=C3S[C@H]4C[C@@]23C2=C(N4)C(=O)c3[nH]cc4c3C2=NCC4)c1C[C@H](N)C(=O)O (relative stereo) [Compound 5, (+)-(6S,8S,7′S*) discorhabdin K]
IC50 (Waga): 6150 nM | AUC (arbitrary units) WaGa (Waga): 660.5 arbitrary units | IC50 (HaCaT): > 10000 nM | AUC (arbitrary units) HaCaT (HaCaT): 944.5 arbitrary units | IC50 (MKL-1; [2]): 3030 nM | AUC (arbitrary units) MKL-1 (MKL-1; VP-MCC): 335 arbitrary units | IC50 (MCC13): > 10000 nM | AUC (arbitrary units) MCC13 (MCC13): 837.7 arbitrary units | IC50 (UISO): 8300 nM | AUC (arbitrary units) UISO (UISO): 767.7 arbitrary units | IC50 [1, 3]: > 5 µM | IC50 (MCC26): > 10000 nM | AUC (arbitrary units) MCC26 (MCC26): 841.3 arbitrary units

Cn1cnc(S[C@H]2[C@H]3C(=O)C=C4S[C@H]5C[C@]42C2=C(N5)C(=O)c4[nH]cc5c4C2=[N+]3CC5)c1C[C@H](N)C(=O)O (relative stereo) [Compound 14, (−)-(1R,2R,6R,8S,7′S*) discorhabdin H]
AUC (arbitrary units) WaGa (Waga): 930 arbitrary units | AUC (arbitrary units) HaCaT (HaCaT): 992.5 arbitrary units | AUC (arbitrary units) MKL-1 (MKL-1; VP-MCC): 901.7 arbitrary units | AUC (arbitrary units) MCC13 (MCC13): 950.6 arbitrary units | AUC (arbitrary units) UISO (UISO): 952.3 arbitrary units | IC50 [1, 4]: > 10 µM | IC50 [1, 3]: > 5 µM | AUC (arbitrary units) MKL-2 (MKL-2): 946.5 arbitrary units | AUC (arbitrary units) MCC26 (MCC26): 947 arbitrary units

O=C1C=C2SC3CC2(C=C1Br)C1=C(N3)C(=O)c2[nH]cc3c2C1=NCC3 (single isomer, unassigned; (-)) [(-)B]
AUC (arbitrary units) WaGa (Waga): 5.814 arbitrary units | AUC (arbitrary units) HaCaT (HaCaT): 114.3 arbitrary units | AUC (arbitrary units) MKL-1 (MKL-1; VP-MCC): 1.929 arbitrary units | AUC (arbitrary units) MCC13 (MCC13): 41.45 arbitrary units | AUC (arbitrary units) UISO (UISO): 33.26 arbitrary units | activity on cell viability, in words [1]: comparable activity against MCC and control cell lines | AUC (arbitrary units) MKL-2 (MKL-2): 9.451 arbitrary units | AUC (arbitrary units) MCC26 (MCC26): 80.18 arbitrary units

O=C1C=C[C@@]23C[C@@H](NC4=C2C2=NCCc5c[nH]c(c52)C4=O)SC3=C1 [Compound 4, (+)-(6S,8S) discorhabdin G*/I]
IC50 (Waga): 859 nM | AUC (arbitrary units) WaGa (Waga): 105.3 arbitrary units | IC50 (HaCaT): 2450 nM | AUC (arbitrary units) HaCaT (HaCaT): 267.7 arbitrary units | IC50 (MKL-1; [2]): 481 nM | AUC (arbitrary units) MKL-1 (MKL-1; VP-MCC): 54.17 arbitrary units | IC50 (MCC13): 940 nM | AUC (arbitrary units) MCC13 (MCC13): 124.8 arbitrary units | IC50 (UISO): 921 nM | AUC (arbitrary units) UISO (UISO): 121.7 arbitrary units | averaged potency (IC50) across all MCC cell lines tested (MCC cell lines): sub-micromolar | IC50 (MKL-2): 879 nM | AUC (arbitrary units) MKL-2 (MKL-2): 108.8 arbitrary units | IC50 (MCC26): 1280 nM | AUC (arbitrary units) MCC26 (MCC26): 140 arbitrary units

O=C1C=C(S(=O)(=O)O)[C@@]2(C=CNC3=C2C2=NCCc4c[nH]c(c42)C3=O)C=C1Br [Compound 9, (+)-(6S) sulphonyl-7,8-dehydrodiscorhabdin E]
AUC (arbitrary units) WaGa (Waga): 949.7 arbitrary units | AUC (arbitrary units) HaCaT (HaCaT): 911.5 arbitrary units | AUC (arbitrary units) MKL-1 (MKL-1; VP-MCC): 917.6 arbitrary units | AUC (arbitrary units) MCC13 (MCC13): 882.5 arbitrary units | AUC (arbitrary units) UISO (UISO): 914.8 arbitrary units | IC50 [1, 4]: > 10 µM | IC50 [1, 3]: > 5 µM | activity on cell viability, in words [1]: practically inactive | AUC (arbitrary units) MCC26 (MCC26): 793.9 arbitrary units

O=C1C2=C3C4=[N+](CCc5c[nH]c1c54)[C@H]1C[C@@]34C[C@@H](N2)SC4=CC1=O [Compound 11, (+)-(2S,6R,8S) discorhabdin D]
IC50 (Waga): 1810 nM | AUC (arbitrary units) WaGa (Waga): 216.6 arbitrary units | IC50 (HaCaT): > 6000 nM | AUC (arbitrary units) HaCaT (HaCaT): 715.8 arbitrary units | IC50 (MKL-1; [2]): 497 nM | AUC (arbitrary units) MKL-1 (MKL-1; VP-MCC): 60.49 arbitrary units | IC50 (MCC13): 5000 nM | AUC (arbitrary units) MCC13 (MCC13): 540.6 arbitrary units | IC50 (UISO): 3620 nM | AUC (arbitrary units) UISO (UISO): 423.9 arbitrary units | IC50 (MKL-2): 865 nM | AUC (arbitrary units) MKL-2 (MKL-2): 143.2 arbitrary units | IC50 (MCC26): 5850 nM | AUC (arbitrary units) MCC26 (MCC26): 653.2 arbitrary units

O=C1C2=C(C3=NCCc4c[nH]c1c43)C1(C=C(Br)C(O)C(Br)=C1)CCN2 (centres unmarked) [Compound 16, 3-dihydrodiscorhabdin C]
IC50 (Waga): 3200 nM | AUC (arbitrary units) WaGa (Waga): 370.5 arbitrary units | IC50 (HaCaT): 4130 nM | AUC (arbitrary units) HaCaT (HaCaT): 454.5 arbitrary units | IC50 (MKL-1; [2]): 1630 nM | AUC (arbitrary units) MKL-1 (MKL-1; VP-MCC): 195.9 arbitrary units | IC50 (MCC13): 3470 nM | AUC (arbitrary units) MCC13 (MCC13): 404 arbitrary units | IC50 (UISO): 3090 nM | AUC (arbitrary units) UISO (UISO): 375.8 arbitrary units | IC50 (MKL-2): 1940 nM | AUC (arbitrary units) MKL-2 (MKL-2): 277.4 arbitrary units | IC50 (MCC26): 4700 nM | AUC (arbitrary units) MCC26 (MCC26): 543.3 arbitrary units

O=C1C(Br)=CC2(C=CNC3=C2C2=NCCc4c[nH]c(c42)C3=O)C=C1Br [Compound 20, 7,8-dehydrodiscorhabdin C]
IC50 (Waga): 7430 nM | AUC (arbitrary units) WaGa (Waga): 661 arbitrary units | IC50 (HaCaT): > 10000 nM | AUC (arbitrary units) HaCaT (HaCaT): 940.1 arbitrary units | IC50 (MKL-1; [2]): 3260 nM | AUC (arbitrary units) MKL-1 (MKL-1; VP-MCC): 376.3 arbitrary units | IC50 (MCC13): 7480 nM | AUC (arbitrary units) MCC13 (MCC13): 694.4 arbitrary units | IC50 (UISO): 5570 nM | AUC (arbitrary units) UISO (UISO): 542.4 arbitrary units | IC50 [1, 3]: > 5 µM | IC50 (MCC26): ~10000 nM | AUC (arbitrary units) MCC26 (MCC26): 815.8 arbitrary units

O=C1C=CC2(C=C1)CCNC1=C2C2=NCCc3c[nH]c(c32)C1=O [Compound 21, didebromodiscorhabdin C]
AUC (arbitrary units) WaGa (Waga): 973.8 arbitrary units | AUC (arbitrary units) HaCaT (HaCaT): 952.2 arbitrary units | IC50 (MKL-1; printed in brackets beside the all-cell-lines bound, read-out: IC50 MKL-1): > 5000 nM | AUC (arbitrary units) MKL-1 (MKL-1; VP-MCC): 682.4 arbitrary units | AUC (arbitrary units) MCC13 (MCC13): 883 arbitrary units | AUC (arbitrary units) UISO (UISO): 851.9 arbitrary units | IC50 [1, 4]: > 10 µM | IC50 [1, 3]: > 5 µM | AUC (arbitrary units) MCC26 (MCC26): 866.1 arbitrary units

Reference: article PMC10532587, “An Investigation of Structure–Activity Relationships and Cell Death Mechanisms of the Marine Alkaloids Discorhabdins in Merkel Cell Carcinoma Cells” (Marine Drugs, 2023)
